Reference: patent US20100324137A1, “LAURIC ARGINATE AS A CONTACT ANTIMICROBIAL” (DIVERSEY, INC., priority 2009, published 2010)
Several values for one entry are separate records, joined by “and”; a condition that tells them apart may be missing. Equal entries are not always repeated.

Test system: E. coli
Experiment: Antimicrobial effectiveness: E. coli contacted with sample for 30 seconds, survivors calculated
Type: cell-based
Settings: 30 seconds contact
Protocol: The antimicrobial effectiveness of the present invention in combination with octenyl succinic acid was tested. In this application, the test organism was E. coli, which was contacted with either the control or the stated sample for 30 seconds, and the survivors were calculated.

Compound | Percent Reduction (25 ppm active) | Survivors (25 ppm active) | Percent Reduction (50 ppm active) | Percent Reduction (75 ppm active) | Survivors (75 ppm active) | Percent Reduction (160 ppm active) | Survivors (160 ppm active) | Percent Reduction (320 ppm active) [%] | Survivors (320 ppm active) | Percent Reduction (480 ppm active) [%] | Survivors (480 ppm active)
CCCCCCCCCCCC(=O)N[C@@H](CCCN=C(N)N)C(=O)OCC [LA, ethyl lauroyl arginate] | 96.494% and 96.299% | 5,400,000 org/ml and 5,700,000 org/ml | 99.851% and 99.926% | 99.979% and 99.975% | 33,000 org/ml and 39,000 org/ml | – | – | – | – | – | –
octenyl succinic acid [OSA] | – | – | – | – | – | 84.351% and 84.805% | 24,100,000 org/ml and 23,400,000 org/ml | 99.999 | 2,000 org/ml and 2,200 org/ml | 99.999 | 1,900 org/ml and 1,920 org/ml
